Experiments:
PNT1B-ERG cells [1] = assay: MTS cell viability assay, PNT1B-ERG; format: cell-based, human; details: 72 h
Protocol: (§1) 3-(4,5-dimethylthiazol-2-yl)-5-(3-carboxymethoxyp henyl)-2-(4-sulfophenyl)-2H-tetrazolium, inner salt (MTS). Cells were seeded at a density of 3000 cells per well (except VCaP at 20,000/well) in 100 μL of appropriate media in 96 well culture dishes. Twenty four hours later, 100 μL of medium containing vehicle control or compounds. Each treatment was prepared in triplicate. After a 72 h treatment, cellular viability was assessed using CellTiter 96 ® Aqueous One Solution Cell Proliferation Assay reagent (Promega) according to the manufacturer's instructions. Values were normalized to the DMSO control.

zebrafish embryos = assay: Compound toxicity to zebrafish embryos; format: in vivo
PNT1B-ERG cells [2] = assay: Real time growth assay (Incucyte confluence); format: cell-based, human; details: 1, 5 or 15 µM; 168 h
Protocol: www.impactjournals.com/oncotarget/ Oncotarget Supplementary Materials
Discovery and characterization of small molecules targeting the DNA-binding ETS domain of ERG in prostate cancer […]
samples where less saturation of MS data is expected. This […]
and gives reasonable estimates when the use of MS […]
sulfoxide (DMSO) were diluted 1,000× into methanol
The (Gibco), then underwent APC BrdU Flow Kit protocol
Cells were analysed on a FACSCanto™
Data was analyzed using FlowJo
Eppendorf tubes. Saturated PBS samples were further software (TreeStar, USA). Biological replicates were diluted with an equal volume of PBS. Aliquots of these analysed statistically by Two-Way ANOVA. […]
the dark. Aliquots taken at later time points were vortex mixed for 1 h prior to sampling. MeOH and diluted PBS Proliferation/cell viability assay […]
were extracted with two volumes acetonitrile (ACN) and centrifuged at 20,000 g for 5 min.
After 24 h, plates were treated with vehicle control, […]
and a Quattro Premier (Waters).
2points/sec were collected with the PDA. The sampler expression datasets from PCa patients […]
represent the mean ± SEM of triplicate experiments. […]
post hoc test. […] The G0–G1 phase
Growth assay of PNT1B-ERG cells

PC3 cells = assay: MTS cell viability assay, PC3; format: cell-based, human; details: 72 h
Protocol: as §1

ERG = biological target: T1, ERG (Homo sapiens, UniProt P11308); assay: Dual reporter luciferase assay (pETS-luc) in PNT1B-ERG cells; format: cell-based; details: 0.1-100 μM, 48 h treatment
T1 construct: expressed in transfected cells; host or cells: PNT1B-ERG (immortalized prostatic epithelial PNT1B cells stably overexpressing ERG)
T1 sequence (P11308 1-479): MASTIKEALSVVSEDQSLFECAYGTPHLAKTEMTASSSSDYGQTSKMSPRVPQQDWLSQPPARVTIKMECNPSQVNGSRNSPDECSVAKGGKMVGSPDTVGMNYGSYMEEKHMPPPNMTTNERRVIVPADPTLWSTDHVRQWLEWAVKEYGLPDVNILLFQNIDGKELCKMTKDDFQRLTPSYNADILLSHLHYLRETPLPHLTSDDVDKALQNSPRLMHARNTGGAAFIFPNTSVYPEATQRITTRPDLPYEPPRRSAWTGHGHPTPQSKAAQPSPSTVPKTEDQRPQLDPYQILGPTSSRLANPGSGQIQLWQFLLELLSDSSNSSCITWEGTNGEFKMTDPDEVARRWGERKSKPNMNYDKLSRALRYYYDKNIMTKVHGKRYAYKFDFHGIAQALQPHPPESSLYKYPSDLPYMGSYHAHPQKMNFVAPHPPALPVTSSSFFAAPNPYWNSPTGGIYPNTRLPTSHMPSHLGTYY
Protocol: All of the compounds selected from the virtual screening were tested in a luciferase-based ERG-responsive reporter assay, using two ERG-overexpressing cell lines, VCaP and PNT1B-ERG, previously developed in house. […] Data were normalized first to Renilla luciferase and then to the DMSO-media control on each plate, unless otherwise stated. Initial hit compounds were identified as those with an average normalized luciferase reading (firefly luciferase/Renilla luciferase readings) that is 60% or less of the average normalized luciferase reading of the DMSO-media control (i.e. 40% or more reduction of luciferase activity) at 10 μM. Representative example of raw Renilla luciferase readings presented in Supplementary Figure 9B. The luciferase assays were repeated for each lead compound under multiple concentrations (0.1 to 100 μM) to establish a dose-dependent response and an IC50 value. AR reporter assay was performed as previously described.

PNT1B-ERG spheroids = assay: 3D spheroid invasion assay; format: cell-based, human; details: compared to vehicle control
Protocol: 3D Spheroid BME Cell Invasion Assay (Trevigen) was performed as per manufacturer's instructions. […] Spheroids were then incubated at 37°C for 3 to 7 days, and photographed using Zeiss AxioObserver Z1 microscope in each well on the day of invasion mix addition and every two days following. Spheroids were retreated with 50 μL of vehicle control or compound after 72 hr.

PNT1B-ERG cells [3] = assay: Real time cell migration (xCELLigence), PNT1B cells; format: cell-based, human; details: 5 μM
Protocol: Cell migration was monitored using CIM-16 migration plates via the xCELLigence platform (ACEA). FBS-supplemented media (160 μL) was added to the lower chamber of the plate and incubated at RT for 30 min. The upper chamber was then mounted and 30 μL of serum free media (SFM) was added to each well and left to equilibrate in the incubator for 1 h at 37°C. After the incubation, a background reading was taken for each well. […] Real time readings of cell index values were recorded initially every 5 min until the end of the experiment (48 hr).

PNT1B-ERG or VCaP cells = assay: Zebrafish yolk sac dissemination (xenograft metastasis) assay; format: in vivo; details: 1 and 10 μM in water; 5 days; untreated 65 to 70%
Protocol: Research was carried in accordance with protocols compliant to the Canadian Council on Animal Care and with the approval of the Animal Care Committee at the University of British Columbia. The wildtype zebrafish strain was maintained in aquaria according to standard protocols. Embryos were generated by natural pair-wise matings and raised at 28.5°C on a 14 h light/10 h dark cycle in a 100 mm^2 petri dish containing aquarium water. Phenylthiourea (0.2 mM PTU, Sigma) was added to the embryos at 10 h post-fertilization (hpf) to prevent pigment formation. Yolk sac dissemination assay. PCa cell lines were fluorescently labelled the day before microinjection with 1.5 μM of CellTracker CM-Dil dye (Life Technologies) as per manufacturer's instructions. Wild-type embryos were dechorionated at 2 dpf. Following anaesthetization with tricane, approximately 50–70 cancer cells were microinjected into the yolk sac. Embryos were then transferred to 100 mm^2 plates that contained aquaria water with added PTU and VPC-18005, YK-4-279 or DMSO control. Embryos were visually assessed for presence of xenograph. […] Embryos were kept at 35°C for the duration of the experiment. Approximately, 50 fish were injected per cell line and metastasis was determined on Day 4 and 5 by observation using the Zeiss Axio Observer microscope (5X objective) controlled with Zen 2012 software. […]

CC(C)c1ccc(C=N/N=C2\NC(=O)[C@@H](CC(=O)O)S2)cc1 (stereo in doubt) [VPC-18005, 2-((Z)-2-(((Z)-4-isopropylbenzylidene)hydrazono)-4-oxothiazolidin-5-yl)acetic acid]
Effect on cell viability (MTS), PNT1B-ERG (PNT1B-ERG cells [1]; 0.2–25 μM): did not decrease viability | Concentration at which embryos remained viable (zebrafish embryos; 72 h): up to 50 μM | Effect on proliferation / cell growth (real time cell analysis) (PNT1B-ERG cells [2]): did not suppress proliferation or induce cell death | Effect on cell viability (MTS), PC3 (PC3 cells; 0.2–25 μM): did not decrease viability | Impact on cell cycle distribution (VCaP cells): did not impact cell cycle distribution | IC50 (ERG): 3 µM | Rate of spheroid invasion between day 2 and 6 (PNT1B-ERG spheroids): significantly reduced | Rate of migration of PNT1B-ERG cells (PNT1B-ERG cells [3]; 24 h exposure, relative to vehicle): significantly reduced | Percentage of fish with PNT1B-ERG or VCaP dissemination (PNT1B-ERG or VCaP cells): 20–30%

COc1ccc(C(=O)CC2(O)C(=O)Nc3c(Cl)ccc(Cl)c32)cc1 (stereo not drawn) [YK-4-279, reference compound]
Doses with inhibition of cell viability (MTS), PNT1B-ERG (PNT1B-ERG cells [1]): ≥ 5 µM | Concentrations at which embryos exhibited toxicity (zebrafish embryos): > 10 µM | Effect on proliferation / cell growth (real time cell analysis) (PNT1B-ERG cells [2]): dose-dependent effect | Doses with inhibition of cell viability (MTS), PC3 (PC3 cells): ≥ 5 µM | G0–G1 phase population (VCaP cells; 5 and 10 μM): concomitantly reduced | IC50 (ERG): 5 µM | Rate of spheroid invasion between day 2 and 6 (PNT1B-ERG spheroids): significantly reduced | Cytotoxicity in migration assay (PNT1B-ERG cells [3]; PNT1B-MOCK and PNT1B-ERG cells): cytotoxicity in both cell lines | Percentage of fish with PNT1B-ERG or VCaP dissemination (PNT1B-ERG or VCaP cells): 40–60%

Source: paper PMC5522078, “Discovery and characterization of small molecules targeting the DNA-binding ETS domain of ERG in prostate cancer” (Oncotarget, 2017)
